{"source": "patent US20100015249A1", "about": "“Antitumor agent containing 6'-amidino-2'-naphthyl 4-guanidinobenzoate or salt thereof” (priority 2005, published 2010)", "key": {"[1]": {"test_system": "NF-κB", "test": "TNF-α-activated NF-κB after FUT treatment", "assay_type": "cell-based, human", "conditions": "MDAPanc-28, FUT 80 μg/ml, TNF-α 5 ng/ml", "procedure": "After the following treatment on the human pancreas cancer cell line […]-28, plasmatic compartment was prepared and Western blot was performed to examine the expression of phosphorylated FADD, caspase 8, NF-κB and IκBα. […] The same was true for IκBα expression (FIG. 7-c)."}, "[2]": {"test_system": "TNFRI", "test": "TNFRI expression by Northern blot and Western blot", "assay_type": "cell-based, human", "procedure": "A cDNA probe for hybridization was constructed by the following method. After FUT treatment, RNA was extracted from the human pancreas cancer cell line […]-28 by using TRIZOL Reagent (Life Technologies, Inc.) 15 μg of RNA was subjected to electrophoresis on a 1% denatured formaldehyde agarose gel and transferred to a nylon membrane. RT-PCR was performed in order to construct a cDNA probe to be used for the detection of TNFRI mRNA. With this RT-PCR, primers represented by SEQ ID Nos: 5 and 6 were used. The obtained cDNA was inserted into the pCR2.1-TOPO vector. […] The obtained cDNA probe was labeled with α-^32P dCTP by using the random labeling kit (Roche) and used for hybridization. The expression of TNFRI mRNA was confirmed by Northern blot method with the above mentioned probe according to the method generally known. […] Also, TNFRI expression on the cell surface was detected by Western blot method. More specifically, the experiment was performed by the method similar to the method described in Example 2. Mouse monoclonal anti-TNFR1 (H-5; Santa Cruz Biotechnology) was used for detection."}, "[3]": {"test_system": "human pancreas cancer cell line MDAPanc-28", "test": "Apoptosis ratio by flow cytometry (propidium iodide, FACScan)", "assay_type": "cell-based", "conditions": "MDAPanc-28, pretreatment with the agent 3 hours then gemcitabine 48 hours, compared with gemcitabine alone", "procedure": "The present inventors next examined the effect of these agents on apoptosis induction in the human pancreas cancer cell line MDAPanc-28. […] Flow cytometry was used to confirm the occurrence of apoptosis. Cells were collected after treatments with the agents and fixed in 70% ethanol at −20° C. for 24 hours. After rinsing with PBS, cells were suspended in PBS containing 50 μg/ml of propium iodide, 0.1% Triton X-100, 0.1% sodium citrate and 1 μg/ml of DNase free RNase. The samples were incubated at room temperature for 30 minutes and the amount of DNA was measured by using FACScan."}, "[4]": {"test_system": "MMP-2", "test": "Western blot of MMP-2 expression", "assay_type": "cell-based, human", "conditions": "MDAPanc-28 cytoplasmic fraction, 0 or 80 μg/ml FUT", "procedure": "Cytoplasmic fraction was prepared from the human pancreas cancer cell line […]-28 treated with either 0 μg/ml or 80 μg/ml of FUT. Western blot was performed for the obtained cytoplasmic proteins to examine MMP-2 and MMP-9 expression. More specifically, the experiment was performed by the method described in Example 2. Rabbit polyclonal anti-MMP-2 antibody, goat polyclonal anti-MMP-9 antibody and mouse anti-B-actin antibody (Santa Cruz Biotechnology, Inc.) were used for detection."}, "[5]": {"test_system": "NF-κB", "test": "Gel shift assay of gemcitabine-induced NF-κB activation", "assay_type": "cell-based, human", "conditions": "MDAPanc-28, pretreatment 3 hours then gemcitabine 3 hours", "procedure": "At the same time, the present inventors also made a comparison with the other NF-κB inhibitors PS1145 and PS341. […] Subsequently, a gel shift assay was performed to examine the effect on NF-κB activation."}, "[6]": {"test_system": "FADD", "test": "Western blot of FADD phosphorylation", "assay_type": "cell-based, human", "procedure": "The present inventors examined whether apoptosis signaling cascade is triggered with the elevation of TNFRI expression induced by FUT treatment, using caspase 8 as an indicator. Cytoplasmic fraction was prepared from the human pancreas cancer cell line MDAPanc-28 treated with various concentrations of FUT for 24 hours. Western blot was performed and subjected to the detection with anti-caspase 8 antibody (Santa Cruz Biotechnology) (FIG. 6-a). Western blot was performed to examine temporal changes in the expression of caspase 8, p-FADD, Bid and jBid under a constant concentration of FUT (80 μg/ml) at short intervals from 0 to 24 hours of treatment (FIGS. 6-b, 6-c and 6-d). Anti-FADD antibody was obtained from Santa Cruz Biotechnology and anti-Bid antibody was obtained from BD Pharmingen.\nAfter the following treatment on the human pancreas cancer cell line MDAPanc-28, plasmatic compartment was prepared and Western blot was performed to examine the expression of phosphorylated FADD, caspase 8, NF-κB and IκBα. […] The same was true for IκBα expression (FIG. 7-c)."}, "[7]": {"test_system": "IκBα", "test": "Western blot of IκBα / phosphorylated IκBα in cytoplasm extracts", "assay_type": "cell-based, human", "procedure": "The human pancreas cancer cell line MDAPanc-28 was treated with various concentrations of FUT to examine the effect on IκBα. Cytoplasm extracts were extracted from cells treated with various concentrations of FUT according to the method generally known and Western blot was performed to detect each protein. More specifically, each lane was loaded with 50 μg of protein to perform electrophoresis. The gel was then transferred to a PVDF membrane (Osmonics). After blocking with PBS containing 5% nonfat milk for 2 hours at room temperature, primary antibody (anti-IκBα antibody) diluted with PBS containing 0.1% nonfat milk was added for reaction at 4° C. overnight. After rinsing with PBS, the PVDF membrane was then reacted with secondary antibody solution diluted with PBS containing 0.1% nonfat milk for 2 hours at room temperature. Proteins were detected by using Lumi-Light Western Blotting Substrate."}}, "data": [{"smiles": "N=C(N)c1ccc2cc(OC(=O)c3ccc(N=C(N)N)cc3)ccc2c1", "note": "[FUT, 6-amidino-2-naphthyl p-guanidinobenzoate dimethanesulfonate]", "values": [{"measurement": "TNF-α-activated NF-κB", "setting": "[1]", "result": "inhibits TNF-α-activated NF-κB"}, {"measurement": "level of TNFRI mRNA expression", "setting": "[2]; MDAPanc-28, Northern blot", "result": "increased in a FUT concentration-dependent manner"}, {"measurement": "TNFRI expression on the cell surface", "setting": "[2]; MDAPanc-28, Western blot", "result": "increased TNFRI expression on the cell surface"}, {"measurement": "apoptosis induction in combination with gemcitabine", "setting": "[3]", "result": "further enhanced the effect on apoptosis induction"}, {"measurement": "MMP-2 expression", "setting": "[4]", "result": "inhibited by FUT in a concentration-dependent manner"}, {"measurement": "effect on gemcitabine-induced activation of NF-κB", "setting": "[5]", "result": "had an inhibitory effect on gemcitabine-induced activation of NF-κB"}, {"measurement": "inhibitory effect on gemcitabine-induced NF-κB activation compared among FUT, PS1145 and PS341", "setting": "[5]", "result": "most significant"}, {"measurement": "FADD phosphorylation with TNF-α stimulation", "setting": "[6]; MDAPanc-28, FUT 80 μg/ml pretreatment then TNF-α 5 ng/ml 24 hours, compared to FUT alone", "result": "enhanced FADD phosphorylation"}, {"measurement": "FADD phosphorylation", "setting": "[6]; MDAPanc-28, FUT 80 μg/ml, 0 to 24 hours", "result": "promoted FADD phosphorylation overtime"}, {"measurement": "level of phosphorylated IκBα in the cytoplasm", "setting": "[7]; MDAPanc-28, over time after adding FUT", "result": "declines overtime"}, {"measurement": "level of IκBα in the cytoplasm over time", "setting": "[7]; MDAPanc-28, time after addition of FUT up to 48 hours", "result": "increases along the progression of NF-κB inactivation up to 24 hours after addition of FUT and then is restored to a steady-state level after 48 hours"}, {"measurement": "level of IκBα in the cytoplasm", "setting": "[7]; MDAPanc-28, various concentrations of FUT", "result": "increased by FUT in a concentration-dependent manner"}]}]}
